Source: article PMC11541931, “The structure and function of P5A-ATPases” (Nature Communications, 2024)

Target: T1, CtSpf1 (Thermochaetoides thermophila, UniProt G0S4Z4)
T1 construct: gene CTHT_0032200; full length, last two C-terminal arginines removed; C-terminal TEV site-GGGGS-GFP-His10, tag kept; made in S. cerevisiae PAP1500; in nanodiscs
Assay: cryo-EM structure, […] A
Details: 1 mM ADP with 2 mM AlF4-, Mg2+; MSP1E3D1 nanodisc, pH 7.5; nucleotide-binding site, E1P-ADP state

T1 sequence (G0S4Z4 entry or part of it): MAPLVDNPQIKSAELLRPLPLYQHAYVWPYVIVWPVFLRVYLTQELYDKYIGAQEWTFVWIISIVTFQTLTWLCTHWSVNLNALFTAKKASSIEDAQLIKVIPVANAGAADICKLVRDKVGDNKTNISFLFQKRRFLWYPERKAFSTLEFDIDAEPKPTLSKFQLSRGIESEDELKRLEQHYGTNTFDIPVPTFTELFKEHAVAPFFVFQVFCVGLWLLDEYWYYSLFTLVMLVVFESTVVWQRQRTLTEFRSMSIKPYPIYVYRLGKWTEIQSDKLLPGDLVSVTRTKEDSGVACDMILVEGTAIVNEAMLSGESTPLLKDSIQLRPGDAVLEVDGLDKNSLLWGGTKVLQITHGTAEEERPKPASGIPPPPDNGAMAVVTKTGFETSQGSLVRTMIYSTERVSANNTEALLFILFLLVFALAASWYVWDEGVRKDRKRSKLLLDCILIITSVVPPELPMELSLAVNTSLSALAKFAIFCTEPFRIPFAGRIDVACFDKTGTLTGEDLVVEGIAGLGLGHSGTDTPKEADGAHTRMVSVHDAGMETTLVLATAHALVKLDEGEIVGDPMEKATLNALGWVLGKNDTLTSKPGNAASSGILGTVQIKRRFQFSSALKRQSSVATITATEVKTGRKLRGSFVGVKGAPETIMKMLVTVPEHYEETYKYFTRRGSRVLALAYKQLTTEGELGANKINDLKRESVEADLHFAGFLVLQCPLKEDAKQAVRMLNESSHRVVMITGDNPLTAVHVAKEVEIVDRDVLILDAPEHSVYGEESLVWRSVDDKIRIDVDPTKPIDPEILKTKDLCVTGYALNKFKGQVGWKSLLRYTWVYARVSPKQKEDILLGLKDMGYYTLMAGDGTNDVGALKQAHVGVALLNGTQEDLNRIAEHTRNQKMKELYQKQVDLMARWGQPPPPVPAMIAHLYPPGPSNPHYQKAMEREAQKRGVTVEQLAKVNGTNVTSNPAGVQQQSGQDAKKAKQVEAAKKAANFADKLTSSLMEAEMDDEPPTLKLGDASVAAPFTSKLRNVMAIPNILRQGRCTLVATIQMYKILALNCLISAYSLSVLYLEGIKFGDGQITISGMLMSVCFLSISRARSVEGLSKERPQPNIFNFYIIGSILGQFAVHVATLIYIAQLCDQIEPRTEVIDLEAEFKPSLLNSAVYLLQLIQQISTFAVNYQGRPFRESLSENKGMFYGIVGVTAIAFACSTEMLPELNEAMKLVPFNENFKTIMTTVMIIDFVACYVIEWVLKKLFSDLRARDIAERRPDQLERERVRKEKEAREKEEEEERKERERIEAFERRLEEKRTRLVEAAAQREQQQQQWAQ

Nc1ncnc2c1ncn2[C@@H]1O[C@H](COP(=O)(O)OP(=O)(O)O)[C@@H](O)[C@H]1O [ADP]
cryo-EM structure, 3.4 A: We retrieved two separate maps with ADP-AlF4^− bound
